Patent US10202349B2, “Asymmetric bis-acridines with antitumour activity and their uses” (POLITECHNIKA GDAŃSKA, priority 2015, dated 2019)

Experiments:
[1] = system: PANC 1; experiment: Anti-neoplasmic activity against xenograft in hairless mice; format: in vivo
Method: (§1) For this, we selected 26 bis-acridines, mainly on the basis of the cytotoxic activity. We performed 34 series of experiments evaluating the anti-neoplasmic activity on xenografts in hairless mice against eleven neoplasms of human origin from the determination of the cytotoxic activity of bis-acridines (table 4). The tumours were injected subcutaneously to hairless mice of 5-weeks, female Crl:Nu-Foxnlnu, at a rate of 5×10^6 cells per mouse. After attaining a tumour of about 100 mm^3 or 200 mm^3 in depending on the neoplasm and its take this was 8 or even 30 days, and began therapy. On the day therapy was initiated, we randomised the animals and divided them into groups. Test groups were from 6 to 8 animals, and controls had from 8 to 14 animals. Each compound was tested at three differentiated doses.
(§2) The preparations were administered intravenously (i.v.) twice weekly for 4 weeks (thrice weekly for rapidly growing neoplasms). In several series, we used intraperitoneally (i.p.) administration in the same scheme. […] The therapeutic efficacy of the tested formulations was evaluated by measuring tumour size (length and width measurements of the tumour on the basis of the calculated tumour volume). Tumours were measured twice weekly for a period of about 30 days for fast-growing neoplasms, as well as about 60 days for the slow-growing neoplasms. The tumour volume in the treated groups compared with the control group. On this basis, inhibition of tumour growth was calculated using the following formula: Tumour growth inhibition TGI [%]=100−(ΔVT/ΔVC×100) Where ΔVT—is mean the tumour volume in animals in the group treated at the given day of treatment, minus the mean tumour volume in animals at the date of commencement of therapy. ΔVC is mean tumour volume in animals in the control group on a given day of treatment minus the average tumour volume of animals on the date of commencement of therapy. The results of the tests of anti-neoplasmic activity conducted in xenografts of human-origin neoplasms in mice are shown in Table 5.
(§3) The result above was accepted only in the case that the dose administered in all animals or more than half of the animals that survived to the end of the experiment. In addition, the evaluation was the day that the administration of the preparation was already completed: for the fast-growing neoplasms (eg. HCT116) this was in the days from 15 to 26, while for slow-growing neoplasms (eg. Panc 1) on a day from 34 to 60. […] In addition, the maximum inhibition of neoplasms could be identified in the day, in which there were no factors that could change the value TGI value.
(§4) Such factors may include: a significant decrease in body weight, the appearance of observable toxaemia, excessive rate of tumour growth: tumours in excess of 2000 mm^3 and all animals alive on that day.

[2] = system: BxPC-3; experiment: Cytotoxic activity in vitro, SRB; format: cell-based, human
Method: (§5) Cytotoxic activity tests in-vitro. A measure of the cytotoxic activity of bis-acridines are the EC50 (concentration of studied compounds at which 50% inhibition of proliferation of tumorous is observed) of the evaluated compounds that inhibit the growth of 50% of cells in relation to a control. The cytotoxic activity of the compounds was determined using SRB, recommended by the US National Cancer Institute (USA). As the spectrum of 13 human origin neoplasms in bis-acridine screening studies, we used the following: HT 29 [CRC], HCT 116 [CRC], H 460 [lung cancer], MDA MB 231 [breast cancer], MCF-7 [breast cancer], UM UC3 [bladder cancer], PC 3 [prostate cancer], DU 145 [ prostate cancer], Panc-1 [pancreatic cancer], Mia Pa Ca 2 [pancreatic cancer], BXPC 3 [pancreatic cancer], AsPC1 [pancreatic cancer], Capan-2 [pancreatic cancer]. […] The DU-145 results were substantially a basis for selecting compounds and neoplasms for screening. The next neoplasms most sensitive to the cytotoxic activity of bis-acridines was the CRC HCT-116, as well as breast cancer MBA-MB-231. […] The cytotoxic activity of the remaining bis-acridines is significant or high (EC50 in the range from 1 to 0.04 μM). […] Panc-1, MiaPaCa-2 and Capan-2 are more sensitive, whereas for AsPC-1 and BxPC-3 this activity is at least an order of magnitude smaller.

[3] = system: PANC-1; experiment: Cytotoxic activity in vitro, SRB; format: cell-based, human
Method: as §5

[4] = system: DU-145; experiment: Cytotoxic activity in vitro, SRB; format: cell-based, human
Method: as §5

[5] = system: MiaPaCa-2; experiment: Cytotoxic activity in vitro, SRB; format: cell-based, human
Method: as §5

[6] = system: AsPC-1; experiment: Cytotoxic activity in vitro, SRB; format: cell-based, human
Method: as §5

[7] = system: HCT-116; experiment: Cytotoxic activity in vitro, SRB; format: cell-based, human
Method: as §5

[8] = system: DU 145; experiment: Anti-neoplasmic activity against xenograft in hairless mice; format: in vivo; settings: single 8 mg/kg
Method: as §1, §2, §3, §4

[9] = system: MDA-MB-231; experiment: Cytotoxic activity in vitro, SRB; format: cell-based, human
Method: as §5

[10] = system: HT-29; experiment: Cytotoxic activity in vitro, SRB; format: cell-based, human
Method: as §5

[11] = system: H 460; experiment: Anti-neoplasmic activity against xenograft in hairless mice; format: in vivo
Method: as §1, §2, §3, §4

[12] = system: H-460; experiment: Cytotoxic activity in vitro, SRB; format: cell-based, human
Method: as §5

[13] = system: UM-UC-3; experiment: Cytotoxic activity in vitro, SRB; format: cell-based, human
Method: as §5

[14] = system: MCF-7; experiment: Cytotoxic activity in vitro, SRB; format: cell-based, human
Method: as §5

[15] = system: PC-3; experiment: Cytotoxic activity in vitro, SRB; format: cell-based, human
Method: as §5

[16] = system: Capan-2; experiment: Cytotoxic activity in vitro, SRB; format: cell-based, human
Method: as §5

[17] = system: BXPC 3; experiment: Anti-neoplasmic activity against xenograft in hairless mice; format: in vivo; settings: series 25, i.v., single 20 mg/kg, total 160 mg/kg, day 29
Method: as §1, §2, §3, §4

1-[3-(8-hydroxy-methylimidazo[4,5,1-de]-acridin-6-on-5-yl)aminopropyl]-4-[3′-(1′-nitroacridin-1-yl)-aminopropyl]piperazine [C-2051]
TGI [%] [100 − (ΔVT/ΔVC × 100] ([1]; series 27, i.v., single 2 mg/kg, total 16 mg/kg, day 40, *at least half of animals did not survive): 68* % | EC50 [2]: 152 nM | EC50 [3]: 39 nM | EC50 [4]: 24 nM | EC50 [5]: 18 nM | EC50 [6]: 151 nM | EC50 [7]: 27 nM

Cc1ccc(NCCNCCNc2c3ccccc3nc3cccc([N+](=O)[O-])c23)c2c(=O)c3ccccc3[nH]c12 [C-1965, 9-{N-[(4-methyl-9(10H)-acridono-1-yl)aminoethyl]ethylamino}-1′-nitroacridine]
TGI [%] [100 − (ΔVT/ΔVC × 100] ([8]; series 1, i.p., total 40 mg/kg, day 35, *at least half of animals did not survive): 61* % | EC50 [9]: 137 nM | EC50 [3]: 212 nM | EC50 [10]: 138 nM | EC50 [4]: 243 nM

Cc1ccc([N+](=O)[O-])c2c(NCCCN3CCN(CCCNc4ccc(C)c5[nH]c6ccccc6c(=O)c45)CC3)c3ccccc3nc12 [C-2017, 1-[3-(4-methyl-9(10H)-acridono-1-yl)aminopropyl]-1-[3′-(4′-methyl-1′-nitroacridin-1-yl)-aminopropyl]piperazine]
TGI [%] [100 − (ΔVT/ΔVC × 100] ([8]; series 2, i.p., total 48 mg/kg, day 35): 25% | TGI [%] [100 − (ΔVT/ΔVC × 100] ([1]; series 31, i.v., single 15 mg/kg, total 120 mg/kg, day 51): 75% | TGI [%] [100 − (ΔVT/ΔVC × 100] ([11]; series 5, i.p., single 5 mg/kg, total 30 mg/kg, day 14): 6% | EC50 [9]: 48 nM | EC50 [10]: 61 nM | EC50 [4]: 46 nM | EC50 [5]: 67 nM | EC50 [12]: 40 nM | EC50 [7]: 47 nM

Cc1ccc([N+](=O)[O-])c2c(NCCCNCCCNc3ccc(C)c4[nH]c5ccccc5c(=O)c34)c3ccccc3nc12 [C-2022, 9-{N-[(4-methyl-9(10H)-acridono-1-yl)aminopropyl]propylamino}-4′-methyl-1′-nitroacridine]
TGI [%] [100 − (ΔVT/ΔVC × 100] ([11]; series 5, i.p., single 10 mg/kg, total 60 mg/kg, day 14): 25% | EC50 [3]: 162 nM | EC50 [10]: 1300 nM | EC50 [4]: 129 nM | EC50 [13]: 105 nM | EC50 [12]: 67 nM | EC50 [7]: 85 nM

CN(CCCNc1c2ccccc2nc2cccc([N+](=O)[O-])c12)CCCNc1ccc([N+](=O)[O-])c2[nH]c3ccccc3c(=O)c12 [C-2026, 9-{N-[(4-nitro-9(10H)acridono-1-yl)aminopropyl]-N-methylaminopropylamino}-1′-nitroacridine]
TGI [%] [100 − (ΔVT/ΔVC × 100] ([11]; series 16, i.v., single 1 mg/kg, total 5 mg/kg, day 15): 14% | TGI [%] [100 − (ΔVT/ΔVC × 100] ([11]; series 16, i.v., single 4 mg/kg, total 16 mg/kg, day 14, *at least half of animals did not survive): 35* % | EC50 [9]: 28 nM | EC50 [3]: 28 nM | EC50 [10]: 67 nM | EC50 [4]: 24 nM | EC50 [14]: 695 nM | EC50 [5]: 103 nM | EC50 [13]: 29 nM | EC50 [6]: 66 nM | EC50 [15]: 51 nM | EC50 [12]: 10 nM | EC50 [7]: 260 nM

Cc1ccc([N+](=O)[O-])c2c(NCCCN3CCN(CCCNc4ccc([N+](=O)[O-])c5[nH]c6ccccc6c(=O)c45)CC3)c3ccccc3nc12 [C-2030, 1-[3-(4-nitro-9(10H)-acridono-1-yl)aminopropyl]-4-[3′-(4′-methyl-1′-nitroacridin-1-yl)-aminopropyl]piperazine]
TGI [%] [100 − (ΔVT/ΔVC × 100] ([11]; series 6, i.v., single 10 mg/kg, total 60 mg/kg, day 17, *at least half of animals did not survive): 24* % | EC50 [3]: 130 nM | EC50 [4]: 41 nM | EC50 [5]: 108 nM | EC50 [13]: 63 nM | EC50 [15]: 362 nM | EC50 [12]: 40 nM | EC50 [7]: 83 nM

O=c1c2ccccc2n2cnc3ccc(NCCNCCNCCNc4c5ccccc5nc5cccc([N+](=O)[O-])c45)c1c32 [C-2037]
TGI [%] [100 − (ΔVT/ΔVC × 100] ([1]; series 17, i.v., single 4 mg/kg, total 16 mg/kg, day 39): 60% | EC50 [2]: 138 nM | EC50 [9]: 27 nM | EC50 [3]: 37 nM | EC50 [4]: 40 nM | EC50 [14]: 82 nM | EC50 [5]: 64 nM | EC50 [16]: 44 nM | EC50 [6]: 86 nM | EC50 [7]: 102 nM

CN(CCCNc1c2ccccc2nc2cccc([N+](=O)[O-])c12)CCCNc1ccc2ncn3c4ccc(O)cc4c(=O)c1c23 [C-2042, 9-{N-[(8-hydroxyimidazo[4,5,1-de]-acridin-6-on-5-yl)aminopropyl]-N-methylaminopropylamino}-1′-nitroacridine]
TGI [%] [100 − (ΔVT/ΔVC × 100] ([1]; series 17, i.v., single 4 mg/kg, total 20 mg/kg, day 39, *at least half of animals did not survive): 33* % | EC50 [2]: 81 nM | EC50 [9]: 18 nM | EC50 [3]: 55 nM | EC50 [4]: 21 nM | EC50 [14]: 49 nM | EC50 [5]: 47 nM | EC50 [16]: 29 nM | EC50 [6]: 82 nM | EC50 [7]: 18 nM

O=c1c2ccccc2n2nnc3ccc(NCCCN4CCN(CCCNc5c6ccccc6nc6cccc([N+](=O)[O-])c56)CC4)c1c32 [C-2048, 1-[3-(6H-[1,2,3]triazolo[4,5,1-de]-acridin-6-on-5-yl)aminopropyl]-4-[3′-(1′-nitroacridin-1-yl)-aminopropyl]piperazine]
TGI [%] [100 − (ΔVT/ΔVC × 100] ([1]; series 30, i.v., single 4 mg/kg, total 24 mg/kg, day 52): 86% | EC50 [9]: 33 nM | EC50 [10]: 152 nM | EC50 [4]: 22 nM | EC50 [14]: 103 nM | EC50 [13]: 120 nM | EC50 [7]: 41 nM

Cc1ccc([N+](=O)[O-])c2c(NCCCN3CCN(CCCNc4ccc5ncn6c7ccccc7c(=O)c4c56)CC3)c3ccccc3nc12 [C-2050, 1-[3-(imidazo[4,5,1-de]-acridin-6-on-5-yl)aminopropyl]-4-[3′-(4′-methyl-1′-nitroacridin-1-yl)-aminopropyl]piperazine]
TGI [%] [100 − (ΔVT/ΔVC × 100] [17]: 40% | TGI [%] [100 − (ΔVT/ΔVC × 100] ([1]; series 24, i.v., single 20 mg/kg, total 160 mg/kg, day 50): 64% | TGI [%] [100 − (ΔVT/ΔVC × 100] ([1]; series 26, i.v., single 30 mg/kg, total 160 mg/kg, day 40): 64% | EC50 [2]: 351 nM | EC50 [3]: 65 nM | EC50 [4]: 62 nM | EC50 [5]: 58 nM | EC50 [6]: 240 nM | EC50 [7]: 45 nM

CN(CCCNc1c2ccccc2nc2cccc([N+](=O)[O-])c12)CCCNc1ccc2nnn3c4ccc(O)cc4c(=O)c1c23 [C-2052, 9-{N-[(8-hydroxy-6H-[1,2,3]triazolo[4,5,1-de]-acridin-6-on-5-yl)aminopropyl]-N-methylaminopropylamino}-1′-nitroacridine]
activity against Panc-1 pancreatic cancer ([1]; in words, scale of b125: TGI≥80% as high activity): high level of activity | TGI [%] [100 − (ΔVT/ΔVC × 100] ([1]; series 30, i.v., single 1 mg/kg, total 8 mg/kg, day 52): 39% | EC50 [4]: 28 nM | EC50 [14]: 220 nM | EC50 [13]: 155 nM | EC50 [12]: 74 nM
